Read-outs that look alike come from different tables or passages of the source.
Tested on: DUX4 expression (surrogate marker MBD3L2)
Test: Screening: qPCR analysis of DUX4 target gene MBD3L2 in differentiating MB200 FSHD2 muscle cells
Assay type: cell-based
Conditions: Homo sapiens, 40 hours, DUX4 expression inferred from surrogate marker MBD3L2 expression (qPCR, normalized to RPL30)
Method: Cells and Cell Culture. Primary human myoblast cell lines, immortalized by retroviral transduction of cyclin-dependent kinase 4 (CDK4) and human telomerase reverse transcriptase (hTERT) (Stadler, et al., 2011), were obtained from the Fields Center at the University of Rochester (world-wide-web at urmc.rochester.edu/fields-center.aspx). Immortalized myoblasts were grown in Ham's F-10 Nutrient Mix (Gibco, Waltham, MA, USA) supplemented with 20% HyClone Fetal Bovine Serum (GE Healthcare Life Sciences, Pittsburgh, PA, USA), 100 U/100 μg penicillin/streptomycin (Gibco), 10 ng/ml recombinant human fibroblast growth factor (Promega Corporation, Madison, WI, USA) and 1 μM dexamethasone (Sigma-Aldrich). Differentiation of myoblasts into myotubes was achieved by switching the fully confluent myoblast monolayer into Dulbecco's Modified Eagle Medium (DMEM) (Gibco) containing 1% horse serum (Gibco), 100 U/100 μg penicillin/streptomycin, 10 μg/ml insulin (Sigma-Aldrich) and 10 μg/ml transferrin (Sigma-Aldrich) (HS/IT media) or DMEM:F12 Nutrient Mixture (1:1, Gibco) supplemented with 2% KnockOut Serum Replacement (Gibco), 100 U/100 μg penicillin/streptomycin, 10 μg/ml insulin and 10 μg/ml transferrin (KSR media) for 2-6 days.
Screening: qPCR analysis of DUX4 target genes MBD3L2. For screening compounds, differentiating MB200 FSHD2 muscle cells were exposed to BET inhibitors at a variety of concentrations for 40 hours to determine the effects of the drugs on DUX4 expression. Cell lysates were prepared using Cells-to-Ct Bulk Lysis Reagents (Invitrogen, Waltham, MA, USA). Gene expression was measured by quantitative polymerase chain reaction (qPCR) was carried out on a QuantStudio 5 (Applied Biosystems, Waltham, MA, USA) using TaqMan Gene Expression Assays (Applied Biosystems) and TaqMan Fast Virus 1-Step Master Mix (Invitrogen). The relative expression levels of DUX4 target gene methyl-CpG binding domain protein 3 like 2 (MBD3L2), was normalized to that of the reference gene ribosomal protein L30 (RPL30), which was included in multiplex (two gene) PCR reactions. TaqMan Gene Expression Assay ID numbers: MBD3L2, Hs00544743_m1; RPL30, Hs00265497_m1. Data is expressed as relative expression with the expression in absence of inhibitors set to one.
Analysis of MBD3L2 expression in cultured FSHD2 cells. DUX4 mRNA is present in very low levels, even in differentiating FSHD2 myoblasts, so DUX4 target gene MBD3L2 was used as a surrogate marker of DUX4 expression. FSHD2 patient derived muscle cells were analyzed to determine whether BET inhibitors affect MBD3L2 expression, indicating a reduction in DUX4 expression.

SMILES	IC50 (read-out: DUX4* MT FSHD2: IC50)	IC50 (read-out: DUX4* MT FSHD2 IC50)
C[C@@H]1C(=O)N(C)CCN1CCOc1ccc(C2CCN(c3ccc(-c4cn(C)c(=O)c5[nH]ccc45)cn3)CC2)cc1 [SLU-2089, (R)-4-{6-[4-(4-(2-(2,4-dimethyl-3-oxopiperazin-1-yl)ethoxy)phenyl)piperidin-1-yl]pyridin-3-yl}-6-methyl-1H-pyrrolo[2,3-c]pyridin-7(6H)-one]	4.8 nM	4.8 nM
CC(=O)N1C[C@@H](C)N(CCOc2ccc(C3CCN(c4ccc(-c5cn(C)c(=O)c6[nH]ccc56)cn4)CC3)cc2)[C@@H](C)C1 [SLU-2090, 4-{6-[4-(4-(2-((2R,6S)-4-acetyl-2,6-dimethylpiperazin-1-yl)ethoxy)phenyl)piperidin-1-yl]pyridin-3-yl}-6-methyl-1H-pyrrolo[2,3-c]pyridin-7(6H)-one]	43 nM	43 nM
C[C@@H]1C(=O)N(C)CCN1CCOc1ccc(C2CCN(c3ncc(-c4cn(C)c(=O)c5[nH]ccc45)cn3)CC2)cc1 [SLU-2091, (R)-4-{2-[4-(4-(2-(2,4-dimethyl-3-oxopiperazin-1-yl)ethoxy)phenyl)piperidin-1-yl]pyrimidin-5-yl}-6-methyl-1H-pyrrolo[2,3-c]pyridin-7(6H)-one]	20 nM	20 nM
CC(=O)N1C[C@@H](C)N(CCOc2ccc(-c3ccc(-c4cn(C)c(=O)c5[nH]ccc45)cc3)cc2)[C@@H](C)C1 [SLU-2096, 4-{4′-[2-((2R,6S)-4-acetyl-2,6-dimethylpiperazin-1-yl)ethoxy]-[1,1′-biphenyl]-4-yl}-6-methyl-1H-pyrrolo[2,3-c]pyridin-7(6H)-one]	180 nM	180 nM
C[C@@H]1C(=O)N(C)CCN1CCOc1ccc(-c2ccc(-c3cn(C)c(=O)c4[nH]ccc34)cc2)cc1 [SLU-2097, (R)-4-{4′-[2-(2,4-dimethyl-3-oxopiperazin-1-yl)ethoxy]-[1,1′-biphenyl]-4-yl}-6-methyl-1H-pyrrolo[2,3-c]pyridin-7(6H)-one]	120 nM	120 nM
COc1cc(-c2ccc(OCCN3[C@H](C)CN(C(C)=O)C[C@@H]3C)cc2)ccc1-c1cn(C)c(=O)c2[nH]ccc12 [SLU-2098, 4-{4′-[2-((2R,6S)-4-acetyl-2,6-dimethylpiperazin-1-yl)ethoxy)-3-methoxy-[1,1′-biphenyl]-4-yl}-6-methyl-1H-pyrrolo[2,3-c]pyridin-7(6H)-one]	310 nM	310 nM
COc1cc(-c2ccc(OCCN3CCN(C)C(=O)[C@H]3C)cc2)ccc1-c1cn(C)c(=O)c2[nH]ccc12 [SLU-2102, (R)-4-{4′-[2-(2,4-dimethyl-3-oxopiperazin-1-yl)ethoxy]-3-methoxy-[1,1′-biphenyl]-4-yl}-6-methyl-1H-pyrrolo[2,3-c]pyridin-7(6H)-one]	130 nM	130 nM
CC(=O)N1C[C@@H](C)N(CCOc2ccc(-c3ccc4nc(-c5cn(C)c(=O)c6[nH]ccc56)ccc4c3)cc2)[C@@H](C)C1 [SLU-2104, 4-{6-[4-(2-((2R,6S)-4-acetyl-2,6-dimethylpiperazin-1-yl)ethoxy)phenyl]quinolin-2-yl}-6-methyl-1H-pyrrolo[2,3-c]pyridin-7(6H)-one]	43 nM	43 nM
CC(=O)N1C[C@@H](C)N(CCOc2ccc(-c3ccc4cc(-c5cn(C)c(=O)c6[nH]ccc56)ccc4n3)cc2)[C@@H](C)C1 [SLU-2107, 4-{2-[4-(2-((2R,6S)-4-acetyl-2,6-dimethylpiperazin-1-yl)ethoxy)phenyl]quinolin-6-yl}-6-methyl-1H-pyrrolo[2,3-c]pyridin-7(6H)-one]	48 nM	48 nM
COc1ccc(C2CCN(c3ccc(-c4cn(C)c(=O)c5[nH]ccc45)cn3)CC2)cc1 [SLU-2108, 4-{6-[4-(4-methoxyphenyl)piperidin-1-yl]pyridin-3-yl}-6-methyl-1H-pyrrolo[2,3-c]pyridin-7(6H)-one]	280 nM	280 nM
CN(C)CCOc1ccc(C2CCN(c3ccc(-c4cn(C)c(=O)c5[nH]ccc45)cn3)CC2)cc1 [SLU-2109, 4-{6-[4-(4-(2-(dimethylamino)ethoxy)phenyl)piperidin-1-yl]pyridin-3-yl}-6-methyl-1H-pyrrolo[2,3-c]pyridin-7(6H)-one]	33 nM	33 nM
C[C@@H]1C(=O)N(C)CCN1CCOc1ccc(N2CCN(c3ccc(-c4cn(C)c(=O)c5[nH]ccc45)cn3)CC2)nc1 [SLU-2110, (R)-4-{6-[4-(5-(2-(2,4-dimethyl-3-oxopiperazin-1-yl)ethoxy)pyridin-2-yl)piperazin-1-yl]pyridin-3-yl}-6-methyl-1H-pyrrolo[2,3-c]pyridin-7(6H)-one]	16 nM	16 nM
COc1cc(N2CCC(c3ccc(OCCN4CCN(C)C(=O)[C@H]4C)cc3)CC2)ncc1-c1cn(C)c(=O)c2[nH]ccc12 [SLU-2111, (R)-4-{6-[4-(4-(2-(2,4-dimethyl-3-oxopiperazin-1-yl)ethoxy)phenyl)piperidin-1-yl]-4-methoxypyridin-3-yl}-6-methyl-1,6-dihydro-7H-pyrrolo[2,3-c]pyridin-7-one]	29 nM	29 nM
C[C@@H]1C(=O)N(C)CCN1CCOc1ccc(-c2ccc3nc(-c4cn(C)c(=O)c5[nH]ccc45)ccc3c2)cc1 [SLU-2112, (R)-4-{6-[4-(2-(2,4-dimethyl-3-oxopiperazin-1-yl)ethoxy)phenyl]quinolin-2-yl}-6-methyl-1H-pyrrolo[2,3-c]pyridin-7(6H)-one]	40 nM	40 nM
CN1CCN(CCOc2ccc(C3CCN(c4ccc(-c5cn(C)c(=O)c6[nH]ccc56)cn4)CC3)cc2)CC1 [SLU-2114, 6-methyl-4-{6-[4-(4-(2-(4-methylpiperazin-1-yl)ethoxy)phenyl)piperidin-1-yl]pyridin-3-yl}-1H-pyrrolo[2,3-c]pyridin-7(6H)-one]	330 nM	330 nM
Cn1cc(-c2ccc(N3CCC4(CCN(C(=O)CO)CC4)CC3)nc2)c2cc[nH]c2c1=O [SLU-2115, 4-{6-[9-(2-hydroxyacetyl)-3,9-diazaspiro[5.5]undecan-3-yl]pyridin-3-yl}-6-methyl-1H-pyrrolo[2,3-c]pyridin-7(6H)-one]	97 nM	97 nM
Cn1cc(-c2ccc(N3CCC(c4ccc(OCCN5CCCCC5)cc4)CC3)nc2)c2cc[nH]c2c1=O [SLU-2116, 6-methyl-4-{6-[4-(4-(2-(piperidin-1-yl)ethoxy)phenyl)piperidin-1-yl]pyridin-3-yl}-1H-pyrrolo[2,3-c]pyridin-7(6H)-one]	270 nM	270 nM
COc1cc(N2CCC(c3ccc(OCCN4[C@H](C)CN(C(C)=O)C[C@@H]4C)cc3)CC2)ncc1-c1cn(C)c(=O)c2[nH]ccc12 [SLU-2117, 4-{6-[4-(4-(2-((2R,6S)-4-acetyl-2,6-dimethylpiperazin-1-yl)ethoxy)phenyl)piperidin-1-yl]-4-methoxypyridin-3-yl}-6-methyl-1H-pyrrolo[2,3-c]pyridin-7(6H)-one]	91 nM	91 nM
Cn1cc(-c2ccc(N3CCC(c4ccc(OCCN5CCOCC5)cc4)CC3)nc2)c2cc[nH]c2c1=O [SLU-2118, 6-methyl-4-{6-[4-(4-(2-morpholinoethoxy)phenyl)piperidin-1-yl]pyridin-3-yl}-1H-pyrrolo[2,3-c]pyridin-7(6H)-one]	261 nM	261 nM
Cn1cc(-c2ccc(N3CCC(c4ccc(OCCn5cncn5)cc4)CC3)nc2)c2cc[nH]c2c1=O [SLU-2119, 4-{6-[4-(4-(2-(1H-1,2,4-triazol-1-yl)ethoxy)phenyl)piperidin-1-yl]pyridin-3-yl}-6-methyl-1H-pyrrolo[2,3-c]pyridin-7(6H)-one]	130 nM	130 nM
Cn1cc(-c2ccc(N3CCC4(CCNC4)CC3)nc2)c2cc[nH]c2c1=O [SLU-2120, 4-[6-(2,8-diazaspiro[4.5]decan-8-yl)pyridin-3-yl]-6-methyl-1H-pyrrolo[2,3-c]pyridin-7(6H)-one]	350 nM	350 nM
CC(C)CCOc1ccc(C2CCN(c3ccc(-c4cn(C)c(=O)c5[nH]ccc45)cn3)CC2)cc1 [SLU-2124, 4-{6-[4-(4-(isopentyloxy)phenyl)piperidin-1-yl]pyridin-3-yl}-6-methyl-1H-pyrrolo[2,3-c]pyridin-7(6H)-one]	1300 nM	1300 nM
Cn1cc(-c2ccc(N3CCC4(CCN(C(=O)CO)C4)CC3)nc2)c2cc[nH]c2c1=O [SLU-2127]	37 nM	37 nM

— patent publication US12636290B2, “BET inhibitors for modulating DUX4 expression in FSHD” (Saint Louis University, priority 2018, dated 2026)
